Measurements taken from ChEMBL document CHEMBL5291721, “A preclinical secondary pharmacology resource illuminates target-adverse drug reaction associations of marketed drugs” (Nat Commun, 2023).
Where “and” joins values, the source holds several entries; their conditions need not be identical. Identical values can stand only once.

Tests used:
Cannabinoid receptor 1 = Cannabinoid receptor 1 (Homo sapiens, UniProt P21554); type: functional, cell-based
B2 bradykinin receptor = biological target: T1, B2 bradykinin receptor (Homo sapiens, UniProt P30411)
T1 sequence (P30411 whole entry): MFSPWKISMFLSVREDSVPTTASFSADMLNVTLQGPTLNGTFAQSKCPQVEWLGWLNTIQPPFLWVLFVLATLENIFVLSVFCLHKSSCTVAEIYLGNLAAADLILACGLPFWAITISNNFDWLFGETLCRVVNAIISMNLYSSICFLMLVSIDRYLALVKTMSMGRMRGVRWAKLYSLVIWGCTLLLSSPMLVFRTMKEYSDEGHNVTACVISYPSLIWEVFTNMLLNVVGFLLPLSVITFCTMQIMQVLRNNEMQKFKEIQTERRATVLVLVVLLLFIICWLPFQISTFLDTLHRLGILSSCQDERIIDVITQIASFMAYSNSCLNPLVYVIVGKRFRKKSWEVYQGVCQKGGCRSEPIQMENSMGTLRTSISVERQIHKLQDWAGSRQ

Histamine H1 receptor = Histamine H1 receptor (Homo sapiens, UniProt P35367)
Histamine H1 receptor, sequence (P35367 whole entry): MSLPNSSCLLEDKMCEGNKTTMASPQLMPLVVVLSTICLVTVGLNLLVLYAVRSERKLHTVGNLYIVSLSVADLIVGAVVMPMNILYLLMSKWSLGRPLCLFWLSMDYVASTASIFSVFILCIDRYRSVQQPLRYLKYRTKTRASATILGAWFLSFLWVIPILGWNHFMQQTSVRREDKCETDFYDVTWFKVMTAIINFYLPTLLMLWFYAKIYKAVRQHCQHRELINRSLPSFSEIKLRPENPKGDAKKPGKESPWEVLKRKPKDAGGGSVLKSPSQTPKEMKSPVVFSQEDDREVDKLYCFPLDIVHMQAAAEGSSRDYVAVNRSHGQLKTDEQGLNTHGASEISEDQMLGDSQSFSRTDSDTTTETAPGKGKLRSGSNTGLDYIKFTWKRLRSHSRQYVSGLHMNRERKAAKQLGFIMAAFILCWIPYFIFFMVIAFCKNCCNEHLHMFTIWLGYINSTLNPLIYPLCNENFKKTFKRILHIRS

Glucocorticoid receptor = biological target: T2, Glucocorticoid receptor (Homo sapiens, UniProt P04150)
T2 sequence (P04150 whole entry): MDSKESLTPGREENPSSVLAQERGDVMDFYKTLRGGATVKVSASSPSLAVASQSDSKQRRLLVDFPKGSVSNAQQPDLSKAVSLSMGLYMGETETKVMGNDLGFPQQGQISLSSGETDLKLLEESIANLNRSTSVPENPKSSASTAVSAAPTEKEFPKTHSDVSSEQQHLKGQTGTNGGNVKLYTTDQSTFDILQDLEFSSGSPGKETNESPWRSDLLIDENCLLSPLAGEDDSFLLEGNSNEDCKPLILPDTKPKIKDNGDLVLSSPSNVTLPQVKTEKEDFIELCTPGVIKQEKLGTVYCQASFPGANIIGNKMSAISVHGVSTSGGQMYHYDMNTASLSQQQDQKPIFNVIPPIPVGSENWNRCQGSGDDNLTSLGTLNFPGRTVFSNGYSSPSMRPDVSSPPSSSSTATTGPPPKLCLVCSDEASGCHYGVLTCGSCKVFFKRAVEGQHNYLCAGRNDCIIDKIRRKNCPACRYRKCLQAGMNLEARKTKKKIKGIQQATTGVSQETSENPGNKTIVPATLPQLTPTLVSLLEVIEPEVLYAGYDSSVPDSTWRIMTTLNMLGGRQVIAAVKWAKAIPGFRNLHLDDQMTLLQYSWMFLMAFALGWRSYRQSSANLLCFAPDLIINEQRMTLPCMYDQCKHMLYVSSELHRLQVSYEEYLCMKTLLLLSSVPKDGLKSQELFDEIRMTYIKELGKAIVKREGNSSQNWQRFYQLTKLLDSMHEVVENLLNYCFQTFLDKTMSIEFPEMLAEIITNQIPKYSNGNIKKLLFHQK

[1] = biological target: T3, Neuropeptide Y receptor type 1 (Homo sapiens, UniProt P25929)
T3 sequence (P25929 whole entry): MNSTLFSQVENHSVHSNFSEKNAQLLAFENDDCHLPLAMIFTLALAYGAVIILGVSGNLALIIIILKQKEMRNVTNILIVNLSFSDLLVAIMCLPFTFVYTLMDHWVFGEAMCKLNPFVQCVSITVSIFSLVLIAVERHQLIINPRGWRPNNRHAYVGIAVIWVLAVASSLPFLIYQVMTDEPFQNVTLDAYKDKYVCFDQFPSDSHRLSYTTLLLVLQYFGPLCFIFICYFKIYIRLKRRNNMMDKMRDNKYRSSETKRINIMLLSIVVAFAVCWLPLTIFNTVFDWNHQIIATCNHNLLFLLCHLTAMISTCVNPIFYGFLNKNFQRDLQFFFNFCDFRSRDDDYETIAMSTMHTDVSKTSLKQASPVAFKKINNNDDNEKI

Endothelin-1 receptor = biological target: T4, Endothelin-1 receptor (Homo sapiens, UniProt P25101)
T4 sequence (P25101 whole entry): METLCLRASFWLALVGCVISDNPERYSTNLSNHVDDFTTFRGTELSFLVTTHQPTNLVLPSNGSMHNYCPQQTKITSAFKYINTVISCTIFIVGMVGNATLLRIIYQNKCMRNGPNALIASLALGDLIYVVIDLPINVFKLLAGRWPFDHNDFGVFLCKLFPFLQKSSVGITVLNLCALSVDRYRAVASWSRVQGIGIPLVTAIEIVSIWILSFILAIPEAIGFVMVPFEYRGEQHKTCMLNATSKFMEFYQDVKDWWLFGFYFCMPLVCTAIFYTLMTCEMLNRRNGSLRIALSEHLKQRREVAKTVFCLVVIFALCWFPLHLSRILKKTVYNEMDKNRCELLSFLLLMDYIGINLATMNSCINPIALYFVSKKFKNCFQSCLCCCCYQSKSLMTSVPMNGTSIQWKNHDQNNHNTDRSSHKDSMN

[2] = biological target: T5, Alpha-1A adrenergic receptor (Homo sapiens, UniProt P35348)
T5 sequence (P35348 whole entry): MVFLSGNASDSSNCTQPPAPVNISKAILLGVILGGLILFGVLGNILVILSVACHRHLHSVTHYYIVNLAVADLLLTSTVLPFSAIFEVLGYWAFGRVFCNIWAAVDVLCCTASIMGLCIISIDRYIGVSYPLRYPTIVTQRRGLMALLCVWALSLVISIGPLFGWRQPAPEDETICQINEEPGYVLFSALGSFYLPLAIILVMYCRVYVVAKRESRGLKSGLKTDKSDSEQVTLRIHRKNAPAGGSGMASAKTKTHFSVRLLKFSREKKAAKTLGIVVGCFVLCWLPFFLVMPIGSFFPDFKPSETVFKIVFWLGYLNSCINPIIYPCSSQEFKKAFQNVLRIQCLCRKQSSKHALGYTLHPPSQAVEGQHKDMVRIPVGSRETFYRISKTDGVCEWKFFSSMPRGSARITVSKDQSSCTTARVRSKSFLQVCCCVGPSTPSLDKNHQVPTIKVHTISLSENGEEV

Histamine H3 receptor = Histamine H3 receptor (Homo sapiens, UniProt Q9Y5N1)
Histamine H3 receptor, sequence (Q9Y5N1 whole entry): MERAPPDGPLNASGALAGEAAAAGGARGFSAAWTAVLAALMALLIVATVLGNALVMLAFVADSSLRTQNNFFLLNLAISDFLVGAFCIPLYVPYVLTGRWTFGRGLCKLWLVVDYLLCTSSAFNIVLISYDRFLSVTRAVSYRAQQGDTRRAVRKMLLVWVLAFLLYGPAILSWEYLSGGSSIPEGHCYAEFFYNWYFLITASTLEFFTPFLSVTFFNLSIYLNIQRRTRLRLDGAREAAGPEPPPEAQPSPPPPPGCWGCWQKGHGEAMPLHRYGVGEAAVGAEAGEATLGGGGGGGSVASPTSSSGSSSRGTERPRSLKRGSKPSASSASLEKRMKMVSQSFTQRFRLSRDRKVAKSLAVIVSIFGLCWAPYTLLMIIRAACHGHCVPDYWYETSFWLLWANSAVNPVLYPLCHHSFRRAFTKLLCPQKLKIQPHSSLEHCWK

Melanocortin receptor 4 = Melanocortin receptor 4 (Homo sapiens, UniProt P32245)
Melanocortin receptor 4, sequence (P32245 whole entry): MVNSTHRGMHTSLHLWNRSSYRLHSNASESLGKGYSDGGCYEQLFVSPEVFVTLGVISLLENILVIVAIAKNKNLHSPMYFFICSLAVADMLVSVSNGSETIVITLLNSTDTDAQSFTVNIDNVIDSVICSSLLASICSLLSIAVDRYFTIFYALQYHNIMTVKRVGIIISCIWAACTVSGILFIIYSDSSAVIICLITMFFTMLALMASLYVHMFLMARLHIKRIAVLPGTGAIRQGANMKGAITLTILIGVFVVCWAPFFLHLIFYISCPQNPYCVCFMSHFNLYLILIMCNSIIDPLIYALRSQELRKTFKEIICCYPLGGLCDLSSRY

Prothrombin = Prothrombin (Homo sapiens, UniProt P00734); type: functional
Further: assay procedure not described here.

Cannabinoid receptor 1, sequence (P21554 whole entry): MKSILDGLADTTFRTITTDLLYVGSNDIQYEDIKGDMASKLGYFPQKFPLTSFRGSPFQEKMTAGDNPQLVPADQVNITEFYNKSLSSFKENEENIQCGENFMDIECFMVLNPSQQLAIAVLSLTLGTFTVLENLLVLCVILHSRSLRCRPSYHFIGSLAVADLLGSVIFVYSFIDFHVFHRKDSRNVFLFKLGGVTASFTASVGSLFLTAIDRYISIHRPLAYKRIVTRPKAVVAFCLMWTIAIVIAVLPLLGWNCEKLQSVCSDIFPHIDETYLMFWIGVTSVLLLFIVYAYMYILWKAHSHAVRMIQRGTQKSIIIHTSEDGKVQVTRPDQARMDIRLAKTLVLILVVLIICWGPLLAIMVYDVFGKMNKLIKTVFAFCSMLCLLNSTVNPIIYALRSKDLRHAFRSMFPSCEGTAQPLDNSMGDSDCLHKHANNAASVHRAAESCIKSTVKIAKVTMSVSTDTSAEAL

Compound | AC50 (Cannabinoid receptor 1) | AC50 (B2 bradykinin receptor) | AC50 (Histamine H1 receptor) | AC50 (Glucocorticoid receptor) | AC50 [1] | AC50 (Endothelin-1 receptor) | AC50 [2] | AC50 (Histamine H3 receptor) | AC50 (Melanocortin receptor 4) | AC50 (Prothrombin)
CO/N=C(\C(=O)N[C@@H]1C(=O)N2C(C(=O)[O-])=C(C[N+]3(C)CCCC3)CS[C@H]12)c1csc(N)n1 | > 300 µM | > 30 µM | > 300 µM | > 30 µM | > 30 µM | > 300 µM | > 30 µM | > 30 µM and 97 µM |  | 
COC(=O)N[C@H](C(=O)N[C@@H](Cc1ccccc1)[C@@H](O)CN(Cc1ccc(-c2ccccn2)cc1)NC(=O)[C@@H](NC(=O)OC)C(C)(C)C)C(C)(C)C [ATAZANAVIR] |  | > 30 µM | > 10 µM | > 30 µM | > 30 µM |  | > 10 µM | > 10 µM | > 30 µM | 
COc1cc(Nc2c(C#N)cnc3cc(OCCCN4CCN(C)CC4)c(OC)cc23)c(Cl)cc1Cl [BOSUTINIB] |  | > 30 µM | > 10 µM | > 30 µM | > 30 µM | > 30 µM |  |  | 17.7 µM | > 30 µM
CCC[C@@H]1C[C@@H](C(=O)N[C@@H]([C@H]2O[C@H](SC)[C@H](O)[C@@H](O)[C@H]2O)[C@H](C)Cl)N(C)C1 [CLINDAMYCIN] | > 30 µM | > 30 µM |  |  | > 30 µM | > 30 µM | 3.42 µM | > 10 µM | > 30 µM | 
CN(C)CCCN1c2ccccc2CCc2ccc(Cl)cc21 [CLOMIPRAMINE] |  |  |  |  |  |  | 0.0445 µM | 3.8 µM |  | 
O=C(O)c1cc(-c2ccc(F)cc2F)ccc1O [DIFLUNISAL] |  | > 10 µM |  | > 10 µM | > 10 µM |  | > 30 µM |  | > 10 µM | 
COc1cc2c(cc1OC)C(=O)C(CC1CCN(Cc3ccccc3)CC1)C2 (stereo not given) [DONEPEZIL] | > 30 µM | > 30 µM | > 10 µM |  | > 30 µM | > 30 µM |  | 2.5 µM | > 30 µM | > 30 µM
CC(C)C(=O)Nc1ccc([N+](=O)[O-])c(C(F)(F)F)c1 [FLUTAMIDE] |  | > 30 µM |  |  | > 30 µM |  | > 30 µM | > 30 µM | > 30 µM | > 30 µM
C[C@@H]1O[C@@H]1P(=O)(O)O [FOSFOMYCIN] |  | > 10 µM | > 10 µM | > 30 µM | > 10 µM |  | > 10 µM |  | > 10 µM | 
NS(=O)(=O)c1cc2c(cc1Cl)NCNS2(=O)=O [HYDROCHLOROTHIAZIDE] |  | > 30 µM |  | > 30 µM | > 30 µM | > 30 µM | > 10 µM | > 10 µM | > 30 µM | 
NC[C@H]1O[C@H](O[C@H]2[C@H](O)[C@@H](O[C@H]3O[C@H](CO)[C@@H](O)[C@H](N)[C@H]3O)[C@H](N)C[C@@H]2N)[C@H](O)[C@@H](O)[C@@H]1O [KANAMYCIN] |  | > 10 µM |  | > 10 µM | > 10 µM |  | > 30 µM |  | > 10 µM | 
CN1C(=O)CC(C)(c2ccccc2)C1=O (stereo not given) [METHSUXIMIDE] |  | > 10 µM | > 10 µM | > 10 µM | > 10 µM |  | > 30 µM |  | > 10 µM | 
C[C@H]1C[C@@H]2[C@H]([C@@H](O)C[C@@]3(C)[C@H]2CC[C@]3(O)C(=O)CO)[C@@]2(C)C=CC(=O)C=C12 [METHYLPREDNISOLONE] |  | > 10 µM |  |  | > 10 µM |  | > 30 µM |  | > 10 µM | 
CCN(CC)CCNC(=O)c1cc(Cl)c(N)cc1OC [METOCLOPRAMIDE] | > 30 µM | > 30 µM |  |  | > 30 µM | > 30 µM | > 10 µM | > 10 µM | > 30 µM | 
CC(C)(C(=O)c1cccnc1)c1cccnc1 [METYRAPONE] |  | > 10 µM |  | > 10 µM | > 10 µM |  | > 10 µM |  | > 10 µM | 
COC(=O)C1=C(C)NC(C)=C(C(=O)OCC(C)C)C1c1ccccc1[N+](=O)[O-] (stereo not given) [NISOLDIPINE] | > 30 µM | > 10 µM |  | 8.8 µM | > 10 µM |  | 16 µM |  | > 10 µM | 
OCCN1CCN(CCCN2c3ccccc3C=Cc3ccccc32)CC1 [OPIPRAMOL] | > 30 µM | > 30 µM | 0.081 µM | > 30 µM | > 30 µM | > 30 µM |  | > 30 µM |  | > 30 µM
NC1=NC(=O)C(c2ccccc2)O1 (stereo not given) [PEMOLINE] |  | > 30 µM |  | > 30 µM | > 30 µM |  | > 10 µM | > 10 µM | > 30 µM | 
CC[C@H](C)C(=O)O[C@H]1C[C@H](O)C=C2C=C[C@H](C)[C@H](CC[C@@H](O)C[C@@H](O)CC(=O)O)[C@H]21 [PRAVASTATIN] | > 30 µM |  |  |  |  | > 30 µM | > 10 µM | > 30 µM |  | 
CNC(=O)c1cc(Oc2ccc(NC(=O)Nc3ccc(Cl)c(C(F)(F)F)c3)cc2)ccn1 [SORAFENIB] | > 30 µM | > 30 µM | > 30 µM | > 30 µM | > 30 µM | > 30 µM | > 10 µM | > 30 µM |  | 
CC(C(=O)O)c1ccc(C(=O)c2cccs2)cc1 (stereo not given) [SUPROFEN] |  | > 10 µM | > 10 µM | > 10 µM | > 10 µM |  | > 10 µM | > 10 µM | > 10 µM | 
Cc1ccc(C(=O)c2cc(O)c(O)c([N+](=O)[O-])c2)cc1 [TOLCAPONE] |  | > 10 µM | > 10 µM | > 30 µM | > 10 µM |  | 14.6 µM | > 10 µM | > 10 µM | 
NC[C@H]1CC[C@H](C(=O)O)CC1 [TRANEXAMIC ACID] |  | > 10 µM |  |  | > 10 µM |  | > 30 µM |  | > 10 µM | 
